Data: patent US10208015B2, “Aryl-triazolyl pyridines as pest control agents” (BAYER ANIMAL HEALTH GMBH, priority 2014, dated 2019)

Key:
[1] = logP by HPLC on reversed-phase column (C18), EEC Directive 79/831 Annex V.A8; format: physicochemical; settings: HPLC, C18, acetonitrile (0.1% formic acid)/water (0.09% formic acid) gradient
[2] = test system: Boophilus microplus Parkhurst strain, SP-resistant; test: Boophilus microplus dip test; format: in vivo; settings: application rate 100 ppm, assessed after 7 days
Protocol: Boophilus microplus—Dip Test
• Test animals: cattle ticks (Boophilus microplus) Parkhurst strain, SP-resistant • Solvent: dimethyl sulphoxide
10 mg of active compound are dissolved in 0.5 ml of dimethyl sulphoxide. To produce a suitable formulation, the active compound solution is diluted with water to the concentration desired in each case.
This active compound preparation is pipetted into tubes. 8-10 engorged adult female cattle ticks (Boophilus microplus) are transferred into a further tube with holes. The tube is immersed into the active compound preparation, and all the ticks are completely wetted. After the liquid has run out, the ticks are transferred on filter discs into plastic dishes and stored in a climate-controlled room.
Efficacy is assessed after 7 days by laying of fertile eggs. Eggs which are not visibly fertile are stored in a climate-controlled cabinet until the larvae hatch after about 42 days. An efficacy of 100% means that none of the ticks has laid any fertile eggs; 0% means that all the eggs are fertile.

Boophilus microplus = Boophilus microplus injection test; format: in vivo; settings: application rate 20 μg/animal, assessed after 7 days
Protocol: Boophilus microplus—Injection Test • Solvent: dimethyl sulphoxide […] The animals are transferred into dishes and kept in a climate-controlled room. Efficacy is assessed after 7 days by laying of fertile eggs. Eggs which are not visibly fertile are stored in a climate-controlled cabinet until the larvae hatch after about 42 days.

Ctenocephalides felis = Ctenocephalides felis oral test; format: in vivo; settings: application rate 100 ppm in citrated cattle blood, after 2 days
Summary of the method: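 Compound in DMSO, diluted to test concentration in citrated cattle blood, was fed through a parafilm membrane from a metal cylinder. About 20 unfed adult cat fleas were held in a gauze-closed chamber beneath it.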

Lucilia cuprina = Lucilia cuprina test; format: in vivo; settings: application rate 100 ppm, L1 larvae, after 2 days
Summary of the method: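 About 20 L1 larvae of Lucilia cuprina are placed on minced horsemeat treated with compound (DMSO concentrate diluted in water to the test concentration). Kill is scored after 2 days, where 100% means all larvae dead and 0% none dead.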

Musca domestica = Musca domestica test; format: in vivo; settings: application rate 100 ppm, adult houseflies, after 2 days
Summary of the method: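 Adult houseflies (10 per vessel) exposed to a sugar-solution-treated sponge carrying compound diluted in water from a DMSO concentrate at the desired concentration. Kill in % scored after 2 days; 100% = all flies dead, 0% = none.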

Myzus persicae = Myzus persicae spray test; format: in vivo; settings: application rate 100 g/ha, after 6 days
Protocol: Myzus Persicae—Spray Test […] To produce further test concentrations, the preparation is diluted with emulsifier-containing water. Discs of Chinese cabbage leaves (Brassica pekinensis) infested by all stages of the green peach aphid (Myzus persicae) are sprayed with an active compound preparation of the desired concentration.

Phaedon cochleariae = Phaedon cochleariae spray test; format: in vivo; settings: application rate 100 g/ha, after 7 days
Protocol: Phaedon Cochleariae—Spray Test
(§1) • Solvent: 78.0 parts by weight of acetone • 1.5 parts by weight of dimethylformamide • Emulsifier: alkylaryl polyglycol ether
(§2) To produce a suitable preparation of active compound, 1 part by weight of active compound is dissolved using the stated parts by weight of solvent and made up with water containing an emulsifier concentration of 1000 ppm until the desired concentration is attained. To produce further test concentrations, the preparation is diluted with emulsifier-containing water.
After 7 days, the efficacy in % is determined. 100% means that all the beetle larvae have been killed; 0% means that no beetle larvae have been killed.

Spodoptera frugiperda = Spodoptera frugiperda spray test; format: in vivo; settings: application rate 100 g/ha, after 7 days
Protocol: Spodoptera Frugiperda—Spray Test
as §1, §2
Leaf discs of maize (Zea mays) are sprayed with an active compound preparation of the desired concentration and, after drying, populated with caterpillars of the armyworm (Spodopterafrugiperda).
After 7 days, the efficacy in % is determined. 100% means that all the caterpillars have been killed; 0% means that no caterpillars have been killed.

Tetranychus urticae = Tetranychus urticae spray test, OP-resistant; format: in vivo; settings: application rate 100 g/ha, after 6 days
Protocol: Tetranychus Urticae—Spray Test, OP-Resistant
as §1
To produce further test concentrations, the preparation is diluted with emulsifier-containing water.
After 6 days, the efficacy in % is determined. 100% means that all the spider mites have been killed; 0% means that none of the spider mites have been killed.

[3] = test system: Anopheles gambiae strain RSPH (homozygot kdr); settings: application rate 40 mg/m^2, exposure 30 minutes, 24 hours after contact
Protocol: Anopheles Test (ANPHGB Surface Treatment)
(§3) • Solvent: acetone+2000 ppm rapeseed oil methyl ester (RME)
The exposure time is 30 minutes.
(§4) 24 hours after contact with the treated surface, mortality in % is determined. 100% means that all the mosquitoes have been killed; 0% means that none of the mosquitoes have been killed.

[4] = test system: Anopheles funestus strain FUMOZ-R; settings: application rate 40 mg/m^2, exposure 30 minutes, 24 hours after contact
Protocol: Anopheles Test (ANPHFU Surface Treatment)
as §3
The exposure time is 30 minutes.
as §4

O=C(NC1CC1)c1cc(-c2cn(-c3c(Cl)cc(C(F)(C(F)(F)F)C(F)(F)F)cc3C(F)(F)F)nn2)cnc1Cl [Example 16]
90-100%: efficacy (mortality in %) [3] | efficacy (mortality in %) [4]
90%: efficacy in % (Myzus persicae)
4.0: logP [1]
100%: efficacy (laying of fertile eggs) [2] | efficacy (laying of fertile eggs) (Boophilus microplus) | efficacy (kill in %) (Ctenocephalides felis) | efficacy (kill in %) (Lucilia cuprina) | efficacy (kill in %) (Musca domestica) | efficacy in % (Phaedon cochleariae) | efficacy in % (Spodoptera frugiperda) | efficacy in % (Tetranychus urticae)
